Assay results: ChEMBL document CHEMBL5291721, “A preclinical secondary pharmacology resource illuminates target-adverse drug reaction associations of marketed drugs” (Nat Commun, 2023)

Tests used:
[1] = molecular target: T1, Alpha-1A adrenergic receptor (Homo sapiens, UniProt P35348); assay type: functional, cell-based
T1 sequence (P35348 whole entry): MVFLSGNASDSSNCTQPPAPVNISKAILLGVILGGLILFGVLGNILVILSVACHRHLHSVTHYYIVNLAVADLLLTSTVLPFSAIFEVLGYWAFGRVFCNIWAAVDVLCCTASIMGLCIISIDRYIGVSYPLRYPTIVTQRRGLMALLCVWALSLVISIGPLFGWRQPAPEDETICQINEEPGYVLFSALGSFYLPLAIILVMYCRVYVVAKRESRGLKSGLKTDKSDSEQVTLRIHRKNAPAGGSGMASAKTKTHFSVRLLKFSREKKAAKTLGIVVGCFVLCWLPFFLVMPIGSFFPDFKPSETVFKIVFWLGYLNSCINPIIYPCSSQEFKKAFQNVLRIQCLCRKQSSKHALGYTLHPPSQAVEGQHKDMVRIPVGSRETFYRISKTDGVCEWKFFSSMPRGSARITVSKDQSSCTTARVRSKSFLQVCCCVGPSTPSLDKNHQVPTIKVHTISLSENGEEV

[2] = molecular target: Sodium-dependent serotonin transporter (Homo sapiens, UniProt P31645)
[3] = molecular target: T2, 5-hydroxytryptamine receptor 1A (Homo sapiens, UniProt P08908)
T2 sequence (P08908 whole entry): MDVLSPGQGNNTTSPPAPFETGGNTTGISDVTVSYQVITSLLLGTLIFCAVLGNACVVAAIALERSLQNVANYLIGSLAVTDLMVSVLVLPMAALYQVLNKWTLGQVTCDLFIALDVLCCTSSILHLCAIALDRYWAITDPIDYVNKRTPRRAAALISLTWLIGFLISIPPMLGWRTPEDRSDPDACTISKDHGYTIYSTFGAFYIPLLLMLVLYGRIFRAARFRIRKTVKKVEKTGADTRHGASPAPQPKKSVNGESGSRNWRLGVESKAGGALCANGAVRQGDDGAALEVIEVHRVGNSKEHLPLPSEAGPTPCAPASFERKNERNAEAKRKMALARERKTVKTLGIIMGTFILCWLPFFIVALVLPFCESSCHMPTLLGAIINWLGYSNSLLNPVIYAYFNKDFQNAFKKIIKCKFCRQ

[4] = molecular target: T3, Thromboxane A2 receptor (Homo sapiens, UniProt P21731); assay type: functional, cell-based
T3 sequence (P21731 whole entry): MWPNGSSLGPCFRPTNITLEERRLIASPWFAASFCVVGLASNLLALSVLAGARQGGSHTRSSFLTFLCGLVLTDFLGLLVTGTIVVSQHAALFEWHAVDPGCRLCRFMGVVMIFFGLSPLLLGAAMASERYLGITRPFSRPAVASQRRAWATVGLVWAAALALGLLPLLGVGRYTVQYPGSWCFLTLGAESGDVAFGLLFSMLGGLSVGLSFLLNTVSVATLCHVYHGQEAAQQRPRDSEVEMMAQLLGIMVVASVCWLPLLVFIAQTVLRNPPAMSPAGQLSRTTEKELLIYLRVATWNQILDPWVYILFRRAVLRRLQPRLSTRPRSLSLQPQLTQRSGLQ

[5] = molecular target: cGMP-inhibited 3',5'-cyclic phosphodiesterase 3A (Homo sapiens, UniProt Q14432); assay type: functional
[6] = molecular target: Acetylcholinesterase (Homo sapiens, UniProt P22303); assay type: functional
[7] = molecular target: T4, Progesterone receptor (Homo sapiens, UniProt P06401)
T4 sequence (P06401 whole entry): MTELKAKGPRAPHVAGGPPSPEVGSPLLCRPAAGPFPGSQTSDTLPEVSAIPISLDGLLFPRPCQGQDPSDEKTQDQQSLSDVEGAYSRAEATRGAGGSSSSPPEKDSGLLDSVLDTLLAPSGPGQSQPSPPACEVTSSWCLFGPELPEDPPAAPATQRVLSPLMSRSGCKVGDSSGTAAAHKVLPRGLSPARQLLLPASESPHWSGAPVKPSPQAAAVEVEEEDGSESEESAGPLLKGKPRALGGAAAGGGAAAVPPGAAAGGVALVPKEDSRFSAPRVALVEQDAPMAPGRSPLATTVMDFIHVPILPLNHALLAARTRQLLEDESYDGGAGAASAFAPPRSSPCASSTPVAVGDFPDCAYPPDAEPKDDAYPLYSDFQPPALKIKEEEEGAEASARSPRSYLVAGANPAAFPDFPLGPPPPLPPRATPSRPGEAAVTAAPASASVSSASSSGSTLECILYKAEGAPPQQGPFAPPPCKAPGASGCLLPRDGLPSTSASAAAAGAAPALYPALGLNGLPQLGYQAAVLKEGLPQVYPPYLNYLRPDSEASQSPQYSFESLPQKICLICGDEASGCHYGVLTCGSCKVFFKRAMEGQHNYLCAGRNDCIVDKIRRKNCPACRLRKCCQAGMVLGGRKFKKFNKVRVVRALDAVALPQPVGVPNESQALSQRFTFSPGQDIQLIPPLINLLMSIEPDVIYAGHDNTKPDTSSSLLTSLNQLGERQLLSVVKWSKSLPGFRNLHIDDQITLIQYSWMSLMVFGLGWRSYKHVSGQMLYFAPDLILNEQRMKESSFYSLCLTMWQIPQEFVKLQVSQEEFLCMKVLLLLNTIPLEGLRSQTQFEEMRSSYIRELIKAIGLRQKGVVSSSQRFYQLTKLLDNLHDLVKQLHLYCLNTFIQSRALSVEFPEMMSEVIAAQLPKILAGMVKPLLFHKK

[8] = molecular target: T5, Adenosine receptor A3 (Homo sapiens, UniProt P0DMS8)
T5 sequence (P0DMS8 whole entry): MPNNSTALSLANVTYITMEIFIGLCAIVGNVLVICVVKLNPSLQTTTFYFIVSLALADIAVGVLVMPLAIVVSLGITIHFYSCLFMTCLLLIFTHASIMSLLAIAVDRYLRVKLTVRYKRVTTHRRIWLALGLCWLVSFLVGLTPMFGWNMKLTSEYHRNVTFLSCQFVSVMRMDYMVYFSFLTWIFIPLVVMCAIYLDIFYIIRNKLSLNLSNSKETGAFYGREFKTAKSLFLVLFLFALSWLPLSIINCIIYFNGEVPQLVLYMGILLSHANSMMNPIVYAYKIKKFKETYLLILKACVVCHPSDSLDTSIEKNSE

[9] = molecular target: Prostaglandin G/H synthase 1 (Homo sapiens, UniProt P23219); assay type: functional
Further: assay procedure not described here.

Acetylcholinesterase, sequence (P22303 whole entry): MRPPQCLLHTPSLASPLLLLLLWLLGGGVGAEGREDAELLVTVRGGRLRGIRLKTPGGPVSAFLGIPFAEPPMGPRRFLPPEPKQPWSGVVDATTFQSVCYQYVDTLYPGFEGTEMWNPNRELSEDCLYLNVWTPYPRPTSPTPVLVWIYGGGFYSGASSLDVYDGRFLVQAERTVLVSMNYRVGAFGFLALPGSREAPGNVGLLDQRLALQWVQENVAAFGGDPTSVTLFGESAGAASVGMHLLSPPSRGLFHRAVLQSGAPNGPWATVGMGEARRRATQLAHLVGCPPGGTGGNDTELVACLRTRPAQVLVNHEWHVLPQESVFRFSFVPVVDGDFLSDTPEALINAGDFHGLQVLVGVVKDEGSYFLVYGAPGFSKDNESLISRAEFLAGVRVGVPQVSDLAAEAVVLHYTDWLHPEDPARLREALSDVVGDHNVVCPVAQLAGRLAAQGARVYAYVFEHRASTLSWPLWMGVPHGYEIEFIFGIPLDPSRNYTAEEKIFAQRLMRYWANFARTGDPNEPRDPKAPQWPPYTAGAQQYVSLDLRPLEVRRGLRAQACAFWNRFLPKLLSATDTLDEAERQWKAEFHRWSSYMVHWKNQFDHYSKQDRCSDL
Sodium-dependent serotonin transporter, sequence (P31645 whole entry): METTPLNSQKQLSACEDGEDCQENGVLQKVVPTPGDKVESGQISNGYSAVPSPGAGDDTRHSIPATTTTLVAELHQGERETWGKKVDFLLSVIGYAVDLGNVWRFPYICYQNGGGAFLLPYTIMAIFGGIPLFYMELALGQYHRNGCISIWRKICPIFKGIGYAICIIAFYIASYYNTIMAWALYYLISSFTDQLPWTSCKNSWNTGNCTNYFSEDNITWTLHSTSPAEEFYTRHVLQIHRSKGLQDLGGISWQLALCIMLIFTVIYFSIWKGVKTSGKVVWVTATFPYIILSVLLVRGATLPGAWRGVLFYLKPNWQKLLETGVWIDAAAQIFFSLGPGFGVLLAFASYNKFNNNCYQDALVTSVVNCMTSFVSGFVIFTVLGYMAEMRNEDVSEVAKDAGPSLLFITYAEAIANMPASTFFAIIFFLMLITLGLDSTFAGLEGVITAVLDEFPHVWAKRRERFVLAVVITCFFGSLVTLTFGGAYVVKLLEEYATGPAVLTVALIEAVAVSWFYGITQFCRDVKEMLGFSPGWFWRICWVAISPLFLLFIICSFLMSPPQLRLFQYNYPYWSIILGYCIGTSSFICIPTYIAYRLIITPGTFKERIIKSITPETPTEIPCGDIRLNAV
cGMP-inhibited 3',5'-cyclic phosphodiesterase 3A, sequence (Q14432 whole entry): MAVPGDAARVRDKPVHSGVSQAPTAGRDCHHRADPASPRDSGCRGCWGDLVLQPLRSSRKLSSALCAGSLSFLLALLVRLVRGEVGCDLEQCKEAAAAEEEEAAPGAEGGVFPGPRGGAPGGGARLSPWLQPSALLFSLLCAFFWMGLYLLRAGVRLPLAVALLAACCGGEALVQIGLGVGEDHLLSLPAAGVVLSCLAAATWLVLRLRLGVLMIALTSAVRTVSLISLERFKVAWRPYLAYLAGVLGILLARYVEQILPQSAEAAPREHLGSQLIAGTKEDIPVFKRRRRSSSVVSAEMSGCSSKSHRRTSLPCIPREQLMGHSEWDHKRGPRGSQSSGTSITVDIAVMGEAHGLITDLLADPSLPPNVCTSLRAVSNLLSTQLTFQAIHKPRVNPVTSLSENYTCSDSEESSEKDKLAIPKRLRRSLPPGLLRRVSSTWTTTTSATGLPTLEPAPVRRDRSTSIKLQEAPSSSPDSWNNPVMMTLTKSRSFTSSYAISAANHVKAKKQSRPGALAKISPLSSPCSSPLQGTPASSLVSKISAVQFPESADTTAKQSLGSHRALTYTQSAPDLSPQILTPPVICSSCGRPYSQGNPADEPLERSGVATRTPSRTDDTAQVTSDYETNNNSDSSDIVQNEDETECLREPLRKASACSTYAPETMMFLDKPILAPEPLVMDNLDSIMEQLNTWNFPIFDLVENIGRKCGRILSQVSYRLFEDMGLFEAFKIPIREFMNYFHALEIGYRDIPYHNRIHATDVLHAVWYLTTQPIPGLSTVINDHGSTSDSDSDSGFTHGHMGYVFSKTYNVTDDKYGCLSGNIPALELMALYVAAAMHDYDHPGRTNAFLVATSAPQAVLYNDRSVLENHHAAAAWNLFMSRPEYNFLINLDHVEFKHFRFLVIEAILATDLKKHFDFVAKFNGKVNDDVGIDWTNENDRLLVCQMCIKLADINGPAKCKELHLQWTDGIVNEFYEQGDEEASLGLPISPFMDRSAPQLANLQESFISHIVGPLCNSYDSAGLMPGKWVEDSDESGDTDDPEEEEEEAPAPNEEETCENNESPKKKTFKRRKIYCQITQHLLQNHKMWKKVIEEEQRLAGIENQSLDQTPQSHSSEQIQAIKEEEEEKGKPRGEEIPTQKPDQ
Prostaglandin G/H synthase 1, sequence (P23219 whole entry): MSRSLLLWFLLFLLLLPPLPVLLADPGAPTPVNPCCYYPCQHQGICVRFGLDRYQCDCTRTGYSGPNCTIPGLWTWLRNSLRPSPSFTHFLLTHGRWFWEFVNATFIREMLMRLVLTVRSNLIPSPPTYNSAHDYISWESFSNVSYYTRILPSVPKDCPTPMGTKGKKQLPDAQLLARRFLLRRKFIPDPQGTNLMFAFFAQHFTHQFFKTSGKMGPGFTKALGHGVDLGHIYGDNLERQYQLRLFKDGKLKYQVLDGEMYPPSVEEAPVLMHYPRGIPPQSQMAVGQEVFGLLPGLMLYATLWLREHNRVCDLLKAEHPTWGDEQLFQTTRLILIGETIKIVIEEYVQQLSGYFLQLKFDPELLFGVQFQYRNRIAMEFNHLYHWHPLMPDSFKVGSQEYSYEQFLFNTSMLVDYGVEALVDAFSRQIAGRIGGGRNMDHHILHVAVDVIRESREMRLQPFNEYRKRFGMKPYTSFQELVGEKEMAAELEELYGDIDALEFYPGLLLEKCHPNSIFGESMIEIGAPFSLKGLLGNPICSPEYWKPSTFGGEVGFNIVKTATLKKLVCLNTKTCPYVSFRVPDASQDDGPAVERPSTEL

SMILES | AC50 [1] [µM] | AC50 [2] [µM] | AC50 [3] [µM] | AC50 [4] [µM] | AC50 [5] [µM] | AC50 [6] [µM] | AC50 [7] [µM] | AC50 [8] [µM] | AC50 [9] [µM]
O=P(O)(O)C(Cl)(Cl)P(=O)(O)O [CLODRONIC ACID] | > 30 | > 30 | > 30 | > 30 | > 30 | > 30 | > 30 | > 30 | > 30
Nc1ccncc1 [DALFAMPRIDINE] | > 30 | > 30 | > 30 | > 30 | > 30 | > 30 | > 30 | > 30 | > 30
Cc1onc(-c2c(Cl)cccc2Cl)c1C(=O)N[C@@H]1C(=O)N2[C@@H]1SC(C)(C)[C@@H]2C(=O)O [DICLOXACILLIN] | > 30 | > 30 | > 30 | > 30 | > 30 | > 30 | > 30 | > 30 | > 30
C[C@@H](O)[C@H]1C(=O)N2C(C(=O)O)=C([C@H]3CCCO3)S[C@H]12 [FAROPENEM] | > 30 | > 30 | > 30 | > 30 | > 30 | > 30 | > 30 | > 30 | 11.4
CCOC(=O)c1ccc(OC(=O)CCCCCNC(=N)N)cc1 [GABEXATE] | > 30 | > 30 | > 30 | > 30 | > 30 | > 30 | > 30 | > 30 | > 30
CCCCC/C=C\C/C=C\C/C=C\CCCCC(=O)O [GAMOLENIC ACID] | > 30 | > 30 | > 30 | > 30 | > 30 | > 30 | > 30 | > 30 | 4.91
COCCOc1cnc(NS(=O)(=O)c2ccccc2)nc1 [GLYMIDINE] | > 30 | > 30 | > 30 | > 30 | > 30 | > 30 | > 30 | > 30 | > 30
CC(N)CCCC(C)(C)O (stereo not drawn) [HEPTAMINOL] | > 30 | > 30 | > 30 | > 30 | > 30 | > 30 | > 30 | > 30 | > 30
CCC(=O)O[C@]1(C(=O)COC(C)=O)CC[C@H]2[C@@H]3CCC4=CC(=O)CC[C@]4(C)[C@H]3[C@@H](O)C[C@@]21C [HYDROCORTISONE ACEPONATE] | > 30 | > 30 | > 30 | > 30 | > 30 | > 30 | 0.326 | > 30 | > 30
O=[N+]([O-])O[C@H]1CO[C@H]2[C@@H]1OC[C@H]2O[N+](=O)[O-] [ISOSORBIDE DINITRATE] | > 30 | > 30 | > 30 | > 30 | > 30 | > 30 | > 30 | > 30 | > 30
NC(=O)NCCC[C@H](N)C(=O)O [L-CITRULLINE] | > 30 | > 30 | > 30 | > 30 | > 30 | > 30 | > 30 | > 30 | > 30
CC(=O)O[C@H]1C[C@H](O[C@H]2[C@@H](O)C[C@H](O[C@H]3[C@@H](O)C[C@H](O[C@H]4CC[C@@]5(C)[C@H](CC[C@@H]6[C@@H]5C[C@@H](O)[C@]5(C)[C@@H](C7=CC(=O)OC7)CC[C@]65O)C4)O[C@@H]3C)O[C@@H]2C)O[C@H](C)[C@H]1O[C@@H]1O[C@H](CO)[C@@H](O)[C@H](O)[C@H]1O [LANATOSIDE C] | > 30 | > 30 | > 30 | > 30 | > 30 | > 30 | > 30 | > 30 | > 30
